From US20240360179A1, “STAPLED PEPTIDES AND METHODS THEREOF” (FOG PHARMACEUTICALS, INC., priority 2021, published 2024)

System: COLO320DM cells
Assay: COLO320DM proliferation assay (CellTiter-Glo)
Type: cell-based, human
Conditions: absolute IC50, read-out: COLO320DM Proliferation Abs IC50
Experimental: COLO320DM proliferation assay IC50: In some embodiments, inhibition of cell proliferation by provided technologies were assessed using cell lines related to or from certain conditions, disorders or diseases. In some embodiments, cell proliferation was assessed in COLO320DM cells. In some embodiments, assessment was performed using the following procedure: On Day 1, cultured COLO320DM cells in a T75 flask were trypsinized in 3 mL of 0.250% trypsin/EDTA for 5 min and quenched with 10 mL RPMI-1640+4% HI FBS assay media. The cells were spun down at 1200 rpm for 5 min, the cell pellet collected and re-suspended at 5000 cells/mL in assay media. Using a Combi liquid handler, cells were dispensed (50 uL, 250 cells/well) into three 384 well plates. Plates were incubated at 37° C., 5% CO2 for 18-22 h. On day 2, compounds were added. A liquid handling system was used to prepare the compound dilution and dispense compound into assay plates. The compounds were serially diluted 1/2 in 90% DMSO to create a 7 point dose curve. From compound plate, 100 nL of compound were dispensed directly into wells of the assay plates to create a dose curve starting at 20 uM and ending at 313 nM. Assay plates were incubated at 37° C., 5% CO2 for 96 h. On day 6, assay plates were removed from the incubator and allowed to sit at room temperature for 30 min. Using a liquid handler, 20 uL of CellTiter Glo reagent was added to each well. The assay plates were shaken for 2 min and allowed to sit on the bench for 10-15 minutes. The assay plates were read using the CellTiter Glo protocol on a GloMax microplate reader, and the data analyzed using GraphPad Prism. Activities of various agents, including various stapled peptides in Table E2, were confirmed.
In some embodiments, an assessment was performed as follows. On day 0, cells were seeded in cell culture media (RPMI1640, 4% FBS) in a 96-well plate at desired density, typically at 1000 cells/well. On day 1, 10 mM agent stock solution (in DMSO) was first serially diluted into DMSO at 1:2 ratio, followed by diluting with cell culture media at two times of the final concentrations. Finally, agent-containing media were introduced to cell culture wells already having the same volume of cell culture media. Cells were incubated with agents for desired days before lysed for CellTiter-Glo® Luminescent Cell Viability Assay according to the manufacture instruction (Promega, G7570). Luminescent signal was obtained from a microplate reader (GloMax, Promega). Cell viability data was expressed as % relative to DMSO control wells.
Proliferation Assay. In some embodiments, various proliferation assays are utilized to characterize or assess provided technologies. In some embodiments, on day 0, cells were seeded in cell culture media in a 96-well plate at desired density, typically at 1000 cells/well. On day 1, 10 mM compound stock solution was first serially diluted into DMSO, followed by diluting with cell culture media at two times of the final concentrations. Finally, compound-containing media were introduced to cell culture wells already having the same volume of cell culture media. Cells were incubated with compounds for desired days before lysed for CTG according to the manufacture instruction (G7570, Promega). Luminescent signal was obtained from a microplate reader (GloMax, Promega).

Row | Molecule | IC50
1 | CC(=O)N1CCC[C@]12CC=CCCCC1(CCCC=CCCCOC(=O)N3CC[C@@]4(C3)NC(=O)[C@H](CCCCNC(=O)CC[C@@H](C(=O)N[C@@H](C)C(N)=O)NC(=O)[C@H](Cc3csc5ccccc35)NC(=O)[C@H](Cc3ccsc3)NC4=O)NC(=O)[C@H](Cc3ccccc3)NC(=O)[C@H](C)NC(=O)C(C)(C)NC(=O)[C@H](Cc3cccc(C(=O)O)c3)NC(=O)[C@H](CC(=O)O)NC1=O)NC(=O)[C@H](CCCN1CCOCC1)NC(=O)[C@H](CC(=O)O)NC2=O (relative stereo) [I-313, Ac-PL3-Asp-MorphNva-B5-Asp-3COOHF-Aib-Ala-Phe-Lys*3-PyrS2-3Thi-BztA-GlnR*3-Ala-NH2] | > 20 µM
2 | CC(=O)N1CCC[C@]12CC=CCCCC1(CCCC=CCCCOC(=O)N3CC[C@@]4(C3)NC(=O)[C@H](CSCc3cccc(c3)CSC[C@@H](C(=O)N[C@@H](C)C(N)=O)NC(=O)[C@H](Cc3csc5ccccc35)NC(=O)[C@H](Cc3ccccc3C(F)(F)F)NC4=O)NC(=O)[C@H](Cc3ccccc3)NC(=O)[C@H](C)NC(=O)C(C)(C)NC(=O)[C@H](Cc3cccc(C(=O)O)c3)NC(=O)[C@H](CC(=O)O)NC1=O)NC(=O)[C@H](CC(C)(C)C)NC(=O)[C@H](CC(=O)O)NC2=O (stereo partly drawn) [I-375, Ac-PL3-Asp-Npg-B5-Asp-3COOHF-Aib-Ala-Phe-[mXyl]Cys-PyrS2-2F3MeF-BztA-Cys-Ala-NH2] | ≤ 10 µM

Same assay, conditions: read-out: COLO320DM Proliferation Abs IC50

Row | Molecule | IC50
3 | Ac-PL3-Asp-Ile-B5-Asp-3COOHF-Aib-Ala-Phe-Lys*3-PyrS2-2FF-34ClF-GlnR*3-NH2 [I-1539] | ≤ 10 µM
4 | Ac-PL3-Asp-Chg-B5-Asp-3COOHF-Aib-Ala-Phe-Lys*3-PyrS2-3Thi-34ClF-GlnR*3-NH2 [I-1037] | ≤ 10 µM
5 | Ac-PL3-Asp-DipA-B5-Asp-3COOHF-Ala-Ala-Phe-Lys*3-PyrS2-3Thi-34ClF-GlnR*3-Ala-Ala-[mPEG37]-Lys-NH2 [I-1704] | ≤ 10 µM
6 | Ac-PL3-Asp-Npg-B5-Asp-3COOHF-Aib-Ala-Phe-Lys*3-PyrS2-3Thi-BztA-GlnR*3-[mPEG4]Lys-NH2 [I-1181] | > 20 µM
7 | Ac-PL3-Asp-Ile-B5-Asp-3COOHF-Aib-Ala-Phe-sCH2S*3-PyrS2-Phe-34ClF-TriAzLys*3-NH2 [I-1859] | ≤ 10 µM
8 | Ac-PL3-Asp-Npg-B5-Asp-3COOHF-Aib-Ala-Phe-Lys*3-PyrS2-hCha-BztA-GlnR*3-Val-Glu-Ala-NH2 [I-1347] | > 20 µM
9 | Ac-PL3-Asp-Npg-B5-Asp-3COOHF-Aib-Ala-Phe-Lys*3-PyrS2-hCypA-BztA-GlnR*3-Val-Glu-Ala-NH2 [I-1346] | ≤ 10 µM
10 | Ac-PL3-Asp-DipA-B5-Asp-3COOHF-CyLeu-Ala-Phe-Lys*3-PyrS2-3Thi-34ClF-GlnR*3-NH2 [I-1117] | ≤ 10 µM
11 | Ac-PL3-Asp-Npg-B5-Asp-3COOHF-Aib-Ala-Phe-Lys*3-PyrS2-3Thi-34ClF-GlnR*3-Ser-NH2 [I-869] | ≤ 10 µM
12 | CC(=O)N1CCC[C@]12CC=CCCCC1(CCCC=CCCCOC(=O)N3CC[C@@]4(C3)NC(=O)[C@H](CCCCNC(=O)CC[C@@H](C(=O)N[C@@H](C)C(N)=O)NC(=O)[C@H](Cc3csc5ccccc35)NC(=O)[C@H](Cc3ccccc3C)NC4=O)NC(=O)[C@H](Cc3ccccc3)NC(=O)[C@H](C)NC(=O)C(C)(C)NC(=O)[C@H](Cc3cccc(C(=O)O)c3)NC(=O)[C@H](CC(=O)O)NC1=O)NC(=O)[C@H](CC(C)(C)C)NC(=O)[C@H](CC(=O)O)NC2=O (relative stereo) [I-294, Ac-PL3-Asp-Npg-B5-Asp-3COOHF-Aib-Ala-Phe-Lys*3-PyrS2-2MeF-BztA-GlnR*3-Ala-NH2] | ≤ 10 µM
13 | Ac-PL3-Asp-Npg-B5-Asp-3COOHF-Aib-Ala-Phe-Lys*3-PyrS2-hCbA-BztA-GlnR*3-Val-Glu-Ala-NH2 [I-1345] | ≤ 10 µM
14 | Ac-PL3-Asp-DipA-B5-Asp-3COOHF-Ala-Ala-Phe-Lys*3-PyrS2-3Thi-34ClF-GlnR*3-Ala-Ala-[mPEG8]-Lys-NH2 [I-1703] | ≤ 10 µM
15 | Ac-PL3-Asp-DipA-B5-Asp-3COOHF-Ala-Ala-Phe-Lys*3-PyrS2-3Thi-34ClF-GlnR*3-Ala-Ala-[Ac-PEG8]-Lys-NH2-NH2 [I-1788] | ≤ 10 µM
16 | Ac-PL3-Asp-Npg-B5-Asp-3COOHF-Aib-Ala-Phe-dDab*3-PyrS2-3Thi-BztA-GlnR*3-Ala-Ala-Ala-Ala-Ala-NH2 [I-790] | ≤ 10 µM
17 | Ac-PL3-Asp-Ile-B5-Asp-3COOHF-Phe-Ala-Phe-Lys*3-PyrS2-3Thi-34MeF-GlnR*3-NH2 [I-1102] | ≤ 10 µM
18 | Ac-PL3-Asp-Npg-B5-Asp-3COOHF-Aib-Ala-Phe-Lys*3-PyrS2-3Thi-BztA-GlnR*3-Ala-Ala-Arg-Ala-Ala-Ala-Ala-NH2 [I-1155] | ≤ 10 µM
19 | Ac-PL3-Asp-Npg-B5-Asp-3COOHF-Aib-Ala-Phe-Lys*3-PyrS2-3Thi-BztA-GlnR*3-Ala-Ala-Leu-NH2 [I-805] | ≤ 10 µM
20 | Ac-PL3-Asp-Npg-B5-Asp-3COOHF-Aib-Ala-Phe-Lys*3-PyrS2-3Thi-BztA-GlnR*3-Ala-Arg-Ala-Ala-Ala-Arg-Ala-NH2 [I-1156] | ≤ 10 µM

Row | Molecule | IC50
21 | Ac-PL3-Asp-DipA-B5-Asp-3COOHF-Val-Ala-Phe-Lys*3-PyrS2-Phe-BztA-GlnR*3-dPro-NH2 [I-1855] | ≤ 10 µM
22 | Ac-PL3-Asp-Npg-B5-Asp-3COOHF-Aib-Ala-Phe-Lys*3-PyrS2-3Thi-BztA-GlnR*3-Ala-Val-Pro-Thr-Leu-Lys-NH2 [I-812] | ≤ 10 µM
23 | Ac-PL3-Asp-Chg-B5-Asp-3COOHF-Ala-Ala-Phe-Lys*3-PyrS2-2ClF-34ClF-GlnR*3-NH2 [I-1506] | ≤ 10 µM
24 | Ac-PL3-Asp-Npg-B5-Asp-3COOHF-Aib-Ala-Phe-Lys*3-PyrS2-Phe-34ClF-GlnR*3-NH2 [I-871] | ≤ 10 µM
25 | Ac-PL3-Asp-DipA-B5-Asp-3COOHF-CyLeu-Ala-Phe-Lys*3-PyrS2-2F3MeF-BztA-GlnR*3-NH2 [I-1766] | > 20 µM
26 | CC(=O)N1CCC[C@]12CC=CCCCC1(CCCC=CCCCOC(=O)N3CC[C@@]4(C3)NC(=O)[C@H](CCCCNC(=O)CC[C@@H](C(=O)N[C@@H](C)C(N)=O)NC(=O)[C@H](Cc3csc5ccccc35)NC(=O)[C@H](Cc3ccsc3)NC4=O)NC(=O)[C@H](Cc3ccccc3)NC(=O)[C@H](C)NC(=O)C(C)(C)NC(=O)[C@H](Cc3cccc(C(=O)O)c3)NC(=O)[C@H](CC(=O)O)NC1=O)NC(=O)[C@H](C)NC(=O)[C@H](CC(=O)O)NC2=O (relative stereo) [I-304, Ac-PL3-Asp-Ala-B5-Asp-3COOHF-Aib-Ala-Phe-Lys*3-PyrS2-3Thi-BztA-GlnR*3-Ala-NH2] | ≤ 10 µM
27 | Ac-PL3-Asp-Npg-B5-Asp-3COOHF-Aib-Ala-Phe-Lys*3-PyrS2-3Thi-BztA-GlnR*3-Pro-NH2 [I-719] | ≤ 10 µM
28 | Ac-PL3-Asp-Npg-B5-Asp-3COOHF-Aib-Ala-Phe-Lys*3-PyrS2-3Thi-34ClF-GlnR*3-Pro-NH2 [I-868] | ≤ 10 µM
29 | Ac-PL3-Asp-Npg-B5-Asp-3COOHF-Aib-Ala-Phe-Lys*3-PyrS2-3Thi-34ClF-GlnR*3-Ala-Ala-Ala-[mPEG37]-Lys [I-1708] | ≤ 10 µM
30 | Ac-PL3-Asp-Ile-B5-Asp-3COOHF-Phe-Ala-Phe-Lys*3-PyrS2-Phe-34MeF-GlnR*3-Ala-NH2 [I-1106] | ≤ 10 µM
31 | Ac-PL3-Asp-Npg-B5-Asp-3COOHF-Aib-Ala-Phe-Lys*3-PyrS2-[MorphAc]2NH2F-BztA-GlnR*3-Ala-NH2 [I-1753] | > 20 µM
32 | Ac-PL3-Asp-DipA-B5-Asp-3COOHF-Ala-Ala-Phe-Lys*3-PyrS2-3Thi-34ClF-GlnR*3-Ala-Ala-Ala-[mPEG8]-Lys [I-1705] | ≤ 10 µM
33 | Ac-PL3-Asp-DipA-B5-Asn-3COOHF-nLeu-Ala-Phe-Lys*3-PyrS2-3Thi-34ClF-GlnR*3-NH2 [I-1638] | ≤ 10 µM
34 | Ac-PL3-Asp-Ile-B5-Asp-3COOHF-Aib-Ala-Phe-Lys*3-PyrS2-2MeF-34ClF-GlnR*3-NH2 [I-1508] | ≤ 10 µM
35 | Me2NAc-PL3-Asp-Npg-B5-Asp-3COOHF-Aib-Ala-Phe-Lys*3-PyrS2-3Thi-BztA-GlnR*3-Ala-NH2 [I-1078] | > 20 µM
36 | Ac-PL3-Asp-Chg-B5-Asp-3COOHF-Aib-Ala-Phe-Lys*3-PyrS2-2ClF-BztA-GlnR*3-NH2 [I-1530] | ≤ 10 µM
37 | Ac-PL3-Asp-Cha-B5-Asp-3COOHF-CyLeu-Ala-Phe-Lys*3-PyrS2-3Thi-34ClF-GlnR*3-NH2 [I-1047] | ≤ 10 µM
